Laboratory results reported in paper PMC11204762, “Purification and Structural Analyses of Sulfated Polysaccharides from Low-Value Sea Cucumber Stichopus naso and Anticoagulant Activities of Its Oligosaccharides” (Marine Drugs, 2024).
Values joined by “and” are separate entries in the source; they are usually repeats but may differ in a detail not shown here. Identical values can stand only once.

Experiments:
[1] = test system: intrinsic coagulation pathway (APTT of human plasma); experiment: Anticoagulant activity: APTT with a coagulometer, APTT reagent and standard human plasma; type: biochemical; settings: for 2APTT: concentration required to double the APTT of human plasma (EC2.0×): standard human plasma, EC2.0× ± SD (n = 2)
Description: The anticoagulant activities of natural SnFG and its oligosaccharides 3, 4, 5, and 6 were assessed using a coagulometer (TECO, MC-2000) using APTT reagents and standard human plasma, according to a previous method. Briefly, 5 μL of a series of concentrations of the samples was added to a standard preheated to 37 °C and another 45 μL of standard human plasma was added for co-incubation at 37 °C for 2 min, followed by the addition of 50 μL of APTT reagent for incubation for another 3 min. Subsequently, 50 μL of CaCl2 (0.02 M) was added and the timer was started.
(§1) Activities of natural HfFG (FG from H. fuscopunctata) and its oligosaccharides oHG-8, oHG-11, oHG-14, and oHG-17 were simultaneously detected for comparison.

[2] = biological target: T1, intrinsic factor Xase complex (iXase, VIIIa-IXa-PL-Ca2+ complex) (Homo sapiens, UniProt P00740); experiment: Inhibition of iXase: chromogenic substrate assay, BIOPHEN FVIII:C kit and recombinant human factor VIII; type: biochemical; settings: IC50 ± SE (n = 2)
T1 construct: intrinsic factor Xase complexes (iXase, VIIIa-IXa-PL-Ca^2+ complex); purchased BIOPHEN FVIII:C (assay kit)
T1 sequence (P00740 47-191 limits assumed): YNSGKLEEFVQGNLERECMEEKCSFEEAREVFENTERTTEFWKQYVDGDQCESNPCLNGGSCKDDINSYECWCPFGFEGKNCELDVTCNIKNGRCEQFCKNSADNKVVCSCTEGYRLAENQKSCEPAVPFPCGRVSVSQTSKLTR
T1 sequence (P00740 227-461 limits assumed): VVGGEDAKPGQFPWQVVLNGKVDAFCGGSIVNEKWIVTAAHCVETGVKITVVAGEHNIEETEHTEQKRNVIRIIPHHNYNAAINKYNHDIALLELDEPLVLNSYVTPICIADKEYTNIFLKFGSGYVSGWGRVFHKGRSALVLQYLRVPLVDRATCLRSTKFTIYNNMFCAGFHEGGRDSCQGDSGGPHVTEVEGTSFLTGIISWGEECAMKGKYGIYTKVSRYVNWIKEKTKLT
Description: Inhibition of iXase was assessed using the chromogenic substrate assay and the FVIII assay kit BIOPHEN FVIII:C: containing R1 (FX), R2 (Activation Reagent), and R3 (SXa-11) and recombinant human factor VIII (FVIII). A total of 30 μL of each sample was added to the 96-well plate, followed by 30 μL of R2 and 30 μL of FVIII solution (2 IU/mL), and the place was placed in the microplate reader. The plates were mixed and incubated at 37 °C for 2 min. Then, 30 μL of R1 was added to mix and incubated at 37 °C for 1 min, and finally, 30 μL of R3 was added. The absorbance value at 405 nm (OD405nm) was recorded via a microplate reader, and continuous reading was performed for 2min at 15 s intervals. The experiments were performed in duplicate. The average value of OD405nm was linearly fitted to time, and the slope (the rate of change in absorbance value ΔOD405nm/min) corresponded to the iXase activity.
as §1

| Substance | fold stronger than oHG-8 in APTT prolongation (EC2.0×) ([1]; EC2.0× 20.94 vs. 32.35 μg/mL) | 2APTT: concentration required to double the APTT of human plasma (EC2.0×) [1] | Anti-iXase: concentration required to inhibit 50% Xase activity (IC50) [2] |
| --- | --- | --- | --- |
| L-Fuc2S4S-α(1,3)-L-Δ^4,5HexA-α(1,3)-D-GalNAc4S6S-β(1,4)-[L-Fuc2S4S-α(1,3)]-D-GlcA-β(1,3)-D-GalNAc4S6S-β(1,4)-[L-Fuc2S4S-α(1,3)]-D-GlcA-ol [compound 3] | about 1.5 fold | 20.94 µg/mL and 20.94 ± 0.27 µg/mL | 0.335 ± 0.02473 µg/mL |
| enoxaparin [LMWH, reference compound] |  | 7.46 ± 0.02 µg/mL | 0.08444 ± 0.00799 µg/mL |
